In patent US20040161415A1, “Antitumor and antiviral medications and method for producing the same” (Lymphotec Inc., priority 2001, published 2004):

Test system: EL-4 cells (mouse-derived cancer cells)
Experiment: Measurement of antitumor effect: survival of C57BL/6 mice after intraperitoneal injection of EL-4 cells
Format: in vivo
Settings: for Number of surviving mice: C57BL/6 mice with 5×10^4 EL-4 cells i.p., reserpine 200 μg/kg s.c. every four days
Procedure: Lymphocytes were collected from the spleen of a C57BL/6 mouse by first aseptically taking out the spleen, and mashing up the spleen with a pair of tweezers in a culture dish having a culture solution containing blood serum from cattle embryo The solution including the flaked spleen was filtrated through a mesh to obtain lymphocyte suspension. The lymphocyte suspension was transferred by 50 ml to a centrifuging tube with a pipette and centrifuged at 1500 rpm for 10 minutes.
After centrifugation, supernatant fluid was removed, and a culture solution was added to obtain 2×10^6/ml of solution. The resultant solution thus obtained was transferred to a culture dish containing solid-phase anti-CD3 antibody from a mouse and further cultivated for 4 days on a continuing basis. The resultant solution was farther rinsed with phosphate buffer (occasionally abbreviated as PBS) two times, thus to prepare lymphocytes before heating treatment.
After cultivating EL-4 cells (mouse-derived cancer cells) at 37° C. in an atmosphere of 5% carbon dioxide gas in a flask for 3 days, 50 ml of culture solution containing El-4 cells were transferred to a centrifuging tube with a pipette and centrifuged at 1500 rpm for 10 minutes. After centrifugation, supernatant fluid was removed, and pH-adjusted RPMI1640 culture medium was added thereto, and brought into suspension. Then, the resultant solution thus obtained was again centrifuged at 1500 rpm for 10 minutes, and hereafter, supernatant fluid was removed. Again supernatant fluid was removed, and the pH-adjusted RPMI1640 culture medium prepared previously was added thereto, and brought into suspension. Into the abdominal cavity of each C57BL/6 mouse, 5×10^4 of EL-4 cells in the ultimate solution resultantly obtained was injected to introduce the cancer cells thereinto.
After introducing the EL-4 cells, 3×10^6 of activated lymphocytes treated with heat, which were prepared in Example 1 described above were administered intravenously with administering subcutaneously reserpine thereto. To each mouse of a subject group, reserpine was subcutaneously given by 200 μg/kg every four days together with the […] lymphocytes, and to another control group composed of twelve mice, only the reserpine was given by 200 μg/kg every four days. The reserpine of Rauwolfia serpentina extract was used in this embodiment, but it may be made from a compound extracted from Rauwolfia serpentina or other compounds. Although the reserpine solely may be used as mentioned above, but it may be used as a secondary agent with other primary additives.

`COC(=O)[C@H]1[C@H]2C[C@@H]3c4[nH]c5cc(OC)ccc5c4CCN3C[C@H]2C[C@@H](OC(=O)c2cc(OC)c(OC)c(OC)c2)[C@@H]1OC` [Resrpine, reserpine] was tested, and the “Number of surviving mice” value (lapsed days 23) was 12, the “Number of surviving mice” value (lapsed days 24) was 12 and the “Number of surviving mice” value (lapsed days 25) was 12. For the same compound, the “Number of surviving mice” value (lapsed days 26) was 11, the “Number of surviving mice” value (lapsed days 27) was 11 and the “Number of surviving mice” value (lapsed days 28) was 11. The “Number of surviving mice” value (lapsed days 29) was 9, the “Number of surviving mice” value (lapsed days 30) was 8 and the “Number of surviving mice” value (lapsed days 31) was 8. The “Number of surviving mice” value (lapsed days 32) was 6, the “Number of surviving mice” value (lapsed days 33) was 6 and the “Number of surviving mice” value (lapsed days 34) was 4. The “Number of surviving mice” value (lapsed days 35) was 3 and the “antitumor effect (survival rate of mice observed with time)” value (result in words, summary of Table 1, EL-4 bearing C57BL/6 mice) was “brings about an antitumor effect”.
